This passage reports IC50 results from ChEMBL document CHEMBL1165994, “Leucoridines A-D, cytotoxic Strychnos-Strychnos bisindole alkaloids from Leuconotis” (J Nat Prod, 2010).

In brackets after ≈: the same amount, converted by molar mass.

For assay [1], the system named is KB. The assay can be described thus: Cytotoxicity against human KB cells after 3 days by MTT assay. In kind it is functional, cell-based. The following applies: 72 h.
A short description of assay [2]: Cytotoxicity against human KB/VJ300 cells after 3 days by MTT assay. In kind it is functional, cell-based. The following applies: KB/VJ300, 72 h.

Turning to `CC[C@@H]1CN2CC[C@@]34C5=C(C[C@]6(CN5c5ccccc53)C3=Nc5ccccc5[C@@]35CCN3C[C@@H](CC)[C@@H]6C[C@H]35)[C@H]1C[C@H]24` [LEUCORIDINE A], the figures for the IC50 in assay [1] and in assay [2] were 0.57 µg/mL (≈ 1.02 µM) and 2.39 µg/mL (≈ 4.29 µM), respectively.

Take `CCC1=CN2CC[C@@]34C(=Nc5ccccc53)[C@@]3(CC5=C6N(C3)c3ccccc3[C@@]63CCN6C[C@@H](CC)[C@@H]5C[C@H]63)[C@H]1C[C@H]24` [LEUCORIDINE B]: the half-inhibitory concentration (IC50) in assay [1] was 11.6 µg/mL (≈ 20.9 µM); in assay [2] it was 12 µg/mL (≈ 21.7 µM).

Take `CC[C@@H]1CN2CC[C@@]34C5=C(C[C@]6(CN5c5ccccc53)C(=O)[C@@]3(c5ccccc5N)CCN5C[C@@H](CC)[C@@H]6C[C@H]53)[C@H]1C[C@H]24` [LEUCORIDINE C]: the IC50 in assay [1] turned out to be 10.9 µg/mL (≈ 19 µM); in assay [2], 11.8 µg/mL (≈ 20.5 µM).

Turning to `C=C1[C@H]2C[C@@H]3N(CC[C@@]34c3cccc(C[C@@H]5C6=Nc7ccccc7[C@@]67CCN6C[C@@H](CC)[C@@H]5C[C@H]67)c3N[C@@H]14)C[C@H]2CC` [LEUCORIDINE D], the IC50 in assay [1] was found to be 12.5 µg/mL (≈ 22.4 µM); in assay [2] it was 13.3 µg/mL (≈ 23.8 µM).
